Assay [1] in a line: blood-brain barrier permeability by contrast-enhanced T1-weighted MRI. Format: in vivo, rat. To be noted: given as 300 mg/kg NAC plus 300 mg/kg HPN-07 i.p., MRI seven days after initial drug administration.
Method: Male Long-Evans pigmented rats (with body weights between 360 and 400 g, Harlan Laboratories, Indianapolis, Ind.) were injected intraperitoneally with a combination of 300 mg/kg of NAC plus 300 mg/kg of HPN-07, which were both dissolved in 5 ml/kg of physiological saline solution. […] Drug or saline was administered once on the first day and then twice a day for the following two days.
Seven days after the initial drug administration magnetic resonance imaging (MRI) was used to detect the disruption of the blood-brain barrier (BBB). Contrast enhancement noted on post-contrast T1-weighted MRI after injection of contrast agent (Magnevist=GdDTPA) is indicative of blood-brain barrier disruption. The hyper intensity on the T1-weighted images is resulting from leakage of the gadolinium based contrast agent injected at the baseline.
The MRI parameters and image scale factor were kept constant for all T1-weighted images. The images were evaluated both visually and by region-of-interest (ROI) measurement. ROT measurements were obtained at the time-points (before and after injection of contrast material on T1-weighted images) brain.
Assay [2] deals with doublecortin. As to the kind of experiment: doublecortin immunostaining of hippocampus and entorhinal cortex after noise exposure. Format: in vivo, chinchilla. The following applies: for level of doublecortin staining in the entorhinal cortex: HPN-07 300 mg/kg i.p. As for the experimental part:
In this Example, three-5 year old chinchilla were freedom divided into 3 groups (6 chinchilla at each time point in each group). Chinchilla in noise exposure and noise plus treatment groups were exposed to 105 dB SPL Octave band noise centered at 4 kHz for 6 hours. Chinchilla in the noise plus treatment group were received HPN-07 treatment (300 mg/kg, i.p) started 4 hours after noise exposure, and then twice a day for the following 2 days. Chinchilla in the normal control and the noise exposed only groups were received carrier solutions (i.p.). Chinchilla were euthanized and perfused with 4% paraformaldehyde in PBS 21 days and 6 months after noise exposure. Brains were dissected out and post-fixed in the fixative for one week. The brains were Cryosected at 30 μm. Goat anti-doublecortin (1:100) was used to label neural precursor cells. Images were taken from CA1 regions of hippocampus and the entorhinal cortex with a light microscope. Doublecortin staining reflects neurogenerosis in the brain after neuron damage and death after noise exposure.

The conditions of assay [3]: stated as known; cited from earlier work.

On to “2,4-disulfonyl α-phenyl tertiary butyl nitrone [HPN-07]”, for which the “blood-brain barrier permeability (% change in ROI signal intensity after Magnevist)” value is given as “effectively increases blood-brain barrier permeability” in assay [1] and “unexpectedly increases blood brain permeability” in assay [1] (listed as 2,4-disulfonyl PBN). Further, the “level of doublecortin staining in the entorhinal cortex” value in assay [2] (6 months post noise exposure) and in assay [2] (21 days post noise exposure) was “decreases the level of doubtecortin staining” throughout. In addition, the “density of doublecortin staining in the hippocampus” value in assay [2] (6 months post noise exposure, HPN-07 300 mg/kg i.p. from 4 hours after noise) was “comparable to the control subjects”.
For `CC(=O)N[C@@H](CS)C(=O)O` [NAC, N-acetylcysteine], the blood-brain barrier permeability entry in assay [3] is recorded as “known to not increase blood-brain barrier permeability”.
